# Assay: gradient 5% acetonitrile 3 min, to 50% in 2 min, to 85% in 15 min, held 3 min, 100 µL/min
# Conditions: column: Zorbax Extend-C18 2.1 x 50 mm; eluents: water / acetonitrile, 0.1% formic acid
# How it was run: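 In both positive and negative ionization mode, a quadrupole time-of-flight mass spectrometer coupled to HPLC analyzed pure standards run in mixtures of ~100 molecules. The Zorbax Extend-C18 column (2.1 × 50 mm, 1.8 μm) was operated at 100 μL/min with water and acetonitrile, each containing 0.1% formic acid. The dead volume was 40 μL and the dwell volume 900 μL. Retention time came from adduct peaks that were computationally picked and individually inspected by hand.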
row,RP-LC retention time,SMILES
1,1000 s,COc1ccccc1NC(=O)CN1c2ccc(F)cc2-c2ccccc2S1(=O)=O
2,672 s,Cn1cc(-c2ccncc2)cc1C(=O)NCc1cccc(Br)c1
3,820 s,Cc1ccc2c(c1)N(C(=O)N1CCC(C(=O)NCc3ccccc3)CC1)CCO2
4,727 s,Cc1cc(C(=O)N2CCC(c3nc(-c4ccccc4)no3)C2)n[nH]1 (stereo unspecified)
5,702 s,O=C(Cc1nnc(-c2ccc3ncccc3c2)o1)NCCc1ccccc1
6,632 s,Cn1cc(-c2ccncc2)cc1C(=O)N1CCN(c2ccc(F)cc2)CC1
7,854 s,CC(C)NC(=O)N1CCCC(c2cccc(C(=O)NCc3ccccc3F)c2)C1 (stereo unspecified)
8,1370 s,O=S(=O)(c1ccc2c(c1)CCCC2)N1CCCC1c1nc(-c2ccc(Cl)cc2)no1 (stereo unspecified)
9,798 s,Cc1cc(C)cc(C(=O)N2CCCC(C(=O)NCc3ccco3)C2)c1 (stereo unspecified)
10,732 s,COC(=O)c1ncn2c1C(=O)N(c1ccc(F)cc1)C(C)(C(=O)NCc1ccc(C)cc1)C2 (stereo unspecified)
11,896 s,COc1ccc(C2CC(=O)N(c3cccc(F)c3)C(=O)C2)cc1
12,766 s,Cc1ccc(NC(=O)N(C)CC2CCOC2)c(Cl)c1 (stereo unspecified)
13,949 s,CC1(C(=O)NCc2ccc(F)cc2)CCCN(C(=O)Nc2ccccc2C(F)(F)F)C1 (stereo unspecified)
14,1060 s,CC(C)Oc1ccc(-c2noc(-c3nn(-c4ccc(Cl)cc4)ccc3=O)n2)cc1
15,753 s,COc1ccc(NC(=O)N2CCC(n3c(-c4ccco4)nc4cccnc43)C2)cc1Cl (stereo unspecified)
16,678 s,Cc1cc(C)cc(NS(=O)(=O)c2cc3n(c2)CCCNC3=O)c1
17,909 s,CN(C)S(=O)(=O)c1ccc(-c2nnc(C(=O)NCc3ccc(Cl)cc3)o2)cc1
18,1070 s,COCCN(Cc1ccsc1)C(=O)C1(c2cccs2)CCCC1
19,739 s,Cc1oc(-c2[nH]ncc2C(=O)N2CCCC2)cc1S(=O)(=O)Nc1ccc(Cl)cc1
20,657 s,Cc1ccc(S(=O)(=O)c2ccc(N3CCN(c4ccccn4)CC3)nn2)cc1C
21,579 s,CCCCC(=O)Nc1ccc2nc(N3CCN(CC)CC3)cc(C)c2c1
22,889 s,CCc1cccc(Nc2ncccc2S(N)(=O)=O)c1
23,789 s,CCn1cc(C2=CCN(C(=O)Nc3ccc4c(c3)OCCO4)CC2)c2cccnc21

row,RP-LC retention time,SMILES
1,836 s,Brc1ccccc1-c1nn2c(-c3ccccn3)nnc2s1
2,788 s,COc1cc(CNC(=O)c2nc(CCS(=O)(=O)c3ccc(F)cc3)no2)cc(OC)c1OC
3,903 s,O=C(O)/C=C\C(=O)Nc1ccc(-c2ccccc2)cc1
4,733 s,CC(C)CN1C(=O)c2cccn2CC1CNC(=O)c1cccn1C (stereo unspecified)
5,659 s,O=C(Nc1ccc(-n2cnnn2)cc1)C1CN(c2nc3ccccc3s2)C1
6,626 s,Cc1nc(-c2cccnc2)nc2c1CCC(=O)N2CC1CCCO1 (stereo unspecified)
7,1000 s,Cc1cc(C)n(CCC(=O)N2CC(Oc3cccc(-c4nc(-c5ccccc5)no4)c3)C2)n1
8,864 s,CCOC(=O)c1ccc(NC(=O)COc2cc(C)nc(N3CCN(c4ccccc4)CC3)n2)cc1
9,676 s,O=C(Nc1ccc(Br)cc1F)C1CCN(C(=O)c2cc(-c3cccnc3)n[nH]2)CC1
10,804 s,Cc1cc(C(=O)N2C[C@@H](C)[C@H](c3nc(-c4ccccc4)no3)C2)n[nH]1
11,839 s,CS(=O)(=O)N1CCC(C(=O)NCc2ccco2)Oc2ccc(Cl)cc21 (stereo unspecified)
12,579 s,CN(C)c1ccc(CNC(=O)c2cc3c(=O)n(C)ccc3n2C)cc1
13,759 s,CCc1ccc(NC(=O)Cn2cc(C(=O)N3CCCC3)c(=O)c3ccc(C)nc32)cc1
14,1170 s,CCn1cc(-c2nc(C(=O)Nc3cc(OC)ccc3OC)cs2)c2cccnc21
15,723 s,O=C(O)C1c2ccccc2CC(=O)N1Cc1ccccc1 (stereo unspecified)
16,644 s,O=C(NC1CCCC1)C1CCN(S(=O)(=O)c2cc(C(=O)N3CCCC3)cs2)CC1
17,596 s,Cc1cc(NC(=O)CSc2nnnn2C)sn1
18,808 s,CC(=O)Nc1nc(-c2ccc(C)cc2C)cs1
19,921 s,O=c1n(Cc2ccc3c(c2)OCO3)nc2c(S(=O)(=O)N3CCCCCC3)cccn12
20,833 s,CCCn1cc(CCNC(=O)c2ccc(Cl)s2)c2cccnc21
21,572 s,CCN1CCN(c2cc(C)c3cc(NC(=S)NC4CCCC4)ccc3n2)CC1
22,773 s,Cc1nn(-c2ccc(-c3noc(C4CC4)n3)cc2)cc1C(=O)Nc1ccc(F)cc1F
23,732 s,CCOCCOC(=O)C1=C(C)NC2=C(C(=O)CCC2)C1c1cccc(OC)c1OC (stereo unspecified)

row,RP-LC retention time,SMILES
1,614 s,OC(CN1CCN(c2ncccn2)CC1)c1ccc(Cl)cc1 (stereo unspecified)
2,666 s,CNC(=O)C1CCCN(c2nc3ncn(CC(=O)NCc4ccc(Cl)cc4)c(=O)c3s2)C1 (stereo unspecified)
3,1010 s,CCOc1ccccc1-c1nc(-c2cn(Cc3cccc(F)c3)nn2)no1
4,610 s,Cc1ccc2cc(CCC(=O)N3CCN(C4CCCCC4)CC3)c(=O)[nH]c2c1
5,973 s,CNS(=O)(=O)c1cccnc1Nc1ccc(F)c(Cl)c1
6,584 s,O=C(NCc1cccc(F)c1)c1cn2c(n1)CCCC2
7,661 s,O=C(C1CCN(c2cc(N3CCCCC3)ncn2)CC1)N1CCCCCC1
8,634 s,COc1cccc(NC(=O)Cn2nc3n(c2=O)CCCC3)c1
9,788 s,Cc1cccc(Cc2c(C)nc3c(C(=O)O)cnn3c2C)c1
10,619 s,CCCn1cnc2cc(CNC(=O)Cc3ccsc3)ccc21
11,1060 s,Cc1nc(C)c(C(=O)Nc2nc(-c3ccc(C)c(C)c3)cs2)s1
12,813 s,Cn1cc(Cl)c(C(=O)N2CCCC2c2ccccc2F)n1 (stereo unspecified)
13,985 s,CCOc1ccc(S(=O)(=O)N2CCC(C(=O)N3CCc4ccccc4C3)CC2)cc1
14,913 s,O=C(C1CCN(S(=O)(=O)c2cccc3nonc23)CC1)N1CCc2ccccc2C1
15,731 s,CC(=O)N1CCC(C(=O)NCc2ccc(-c3nc(-c4cccs4)no3)s2)CC1
16,748 s,Cc1nc(-c2cn(Cc3cccc(F)c3)nn2)no1
17,1040 s,CCOc1ccc(-c2ccc(=O)n(Cc3nc(-c4ccccc4C)no3)n2)cc1
18,770 s,CCOC(=O)c1sc(NC(=O)CCCC(=O)O)nc1-c1ccccc1
19,640 s,CN(C)c1ccc(CNC(=O)Cc2c[nH]c3ncccc23)cc1
20,702 s,COCc1cc(=O)n(CC(=O)Nc2ccc(OC)c(OC)c2)c(N2CCOCC2)n1
21,887 s,O=S(=O)(c1cccn2cnnc12)N(Cc1ccc(F)cc1)c1ccc(F)c(F)c1
22,785 s,COc1ccccc1C(=O)N1CCCC(COc2ccc(C(=O)NC3CC3)cc2)C1 (stereo unspecified)
23,884 s,O=C(NCc1ccc2c(c1)CCCN2C(=O)C1CCC1)c1cc(F)ccc1Cl

row,RP-LC retention time,SMILES
1,738 s,COc1ccc(N2CCN(C(=O)C3CCCN(c4ncnc5c4nc4n5CCCCC4)C3)CC2)cc1 (stereo unspecified)
2,605 s,COCC(=O)NCC12CCCC=C1NC(=O)CC2 (stereo unspecified)
3,981 s,Cn1nnc2ccc(-c3noc(-c4ccc(F)cc4)n3)cc21
4,875 s,O=C(Cc1ccccc1)NCC(=O)NC(C(=O)N1CCCc2ccccc21)c1ccccc1 (stereo unspecified)
5,789 s,CCOc1ccc(NC(=O)c2oc3ccc(Cl)cc3c2C)c2cccnc12
6,794 s,O=C(NCCc1csc(-c2ccccc2)n1)C1CCN(C(=O)Cc2cccs2)CC1
7,690 s,COc1ccc(CC(=O)NCCc2cn(C)c3ncccc23)c(Cl)c1
8,901 s,CCc1nc(-c2csc(S(=O)(=O)N3CCCC(C(=O)Nc4ccc(C)cc4)C3)c2)no1 (stereo unspecified)
9,663 s,O=C(N/N=C/c1coc2ccccc2c1=O)c1cccnc1
10,645 s,O=C(NCc1cccc(F)c1)C1CCCN(c2nnc3ccc(Cl)cn23)C1 (stereo unspecified)
11,837 s,Cc1cccc(-c2noc(-c3cc(N4CCN(C)CC4)nc4ccccc34)n2)c1
12,805 s,CC1=C(c2ccc(C)cc2)S(=O)(=O)N=C1N1CCC(NC(=O)C2CCC2)CC1
13,622 s,Cc1cccc(-n2ncc3c(N4CCN(CCO)CC4)ncnc32)c1
14,608 s,CCCNS(=O)(=O)c1cc(-c2[nH]ncc2C(=O)N(C)C)oc1C
15,971 s,Cc1ccc(NC(=O)N2CCC(C(C)C(=O)Nc3cccc(Cl)c3)CC2)cc1 (stereo unspecified)
16,676 s,CCOC(=O)c1ccc(NC(=O)Cn2nc3n(c2=O)CCCC3)cc1
17,952 s,CCCS(=O)(=O)c1nc2ccc(NS(=O)(=O)c3cc(F)cc(F)c3)cc2s1
18,736 s,O=C(c1ccc(F)cc1F)N1CCN(c2cc(-c3ccc(F)cc3)[nH]n2)CC1
19,673 s,CCc1nc2c(=O)n(CC(=O)N3CCCCC3)nc(C)c2s1
20,1190 s,COc1ccc(C2Cn3nnc(-c4nc(-c5cccc(C)c5)no4)c3CO2)cc1 (stereo unspecified)

row,SMILES,RP-LC retention time
1,CCCn1cc(C(=O)NCc2ccccn2)c2cccnc21,595 s
2,COC1=CC(=O)O[C@H](/C=C/c2ccc3c(c2)OCO3)C1,809 s

# Source: the METLIN SMRT retention time set (Domingo-Almenara et al. 2019)
